{"source": "ChEMBL document CHEMBL5338751", "about": "“Discovery of the First-in-Class Intestinal Restricted FXR and FABP1 Dual Modulator ZLY28 for the Treatment of Nonalcoholic Fatty Liver Disease” (J Med Chem, 2023)", "key": {"[1]": {"target": "Retinoic acid receptor alpha (Homo sapiens, UniProt P10276)", "sequence (P10276 whole entry, the tested form may be a part)": "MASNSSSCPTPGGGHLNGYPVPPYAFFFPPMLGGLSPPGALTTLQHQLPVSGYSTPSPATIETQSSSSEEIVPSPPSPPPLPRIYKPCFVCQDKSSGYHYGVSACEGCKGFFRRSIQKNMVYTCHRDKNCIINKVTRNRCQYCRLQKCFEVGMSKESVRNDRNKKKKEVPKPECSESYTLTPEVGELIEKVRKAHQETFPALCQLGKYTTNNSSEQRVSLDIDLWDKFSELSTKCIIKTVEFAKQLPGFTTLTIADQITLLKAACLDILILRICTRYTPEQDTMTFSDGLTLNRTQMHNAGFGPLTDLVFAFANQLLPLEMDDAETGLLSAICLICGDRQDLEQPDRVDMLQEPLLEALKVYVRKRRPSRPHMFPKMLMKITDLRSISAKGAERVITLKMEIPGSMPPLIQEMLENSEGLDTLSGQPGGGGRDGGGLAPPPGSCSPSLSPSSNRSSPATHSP", "assay": "Activation of Gal-DBD and NHRLBD fused RARalpha (unknown origin) transfected in African green monkey CV-1 cells by luciferase reporter assay", "type": "cell-based"}, "[2]": {"target": "T1, Bile acid receptor (Mus musculus) (UniProt Q60641)", "T1 sequence (whole entry)": "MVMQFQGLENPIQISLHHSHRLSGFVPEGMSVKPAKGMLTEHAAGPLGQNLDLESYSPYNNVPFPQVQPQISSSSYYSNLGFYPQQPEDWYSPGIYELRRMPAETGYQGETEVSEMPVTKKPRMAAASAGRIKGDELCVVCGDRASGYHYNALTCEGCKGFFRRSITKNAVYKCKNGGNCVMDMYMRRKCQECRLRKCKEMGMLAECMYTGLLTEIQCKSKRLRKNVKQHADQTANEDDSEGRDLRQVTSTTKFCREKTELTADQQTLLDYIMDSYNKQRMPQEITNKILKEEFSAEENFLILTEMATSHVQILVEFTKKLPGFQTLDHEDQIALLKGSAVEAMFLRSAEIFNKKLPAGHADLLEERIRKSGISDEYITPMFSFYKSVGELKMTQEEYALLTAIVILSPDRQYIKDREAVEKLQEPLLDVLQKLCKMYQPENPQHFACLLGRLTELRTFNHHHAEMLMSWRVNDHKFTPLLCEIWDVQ", "assay": "In vivo activation of FXR pathway in western diet and CCl4-induced nonalcoholic steatohepatitis C57BL/6 mouse model assessed as downregulation of CYP7A1 mRNA level in […] at 20 mg/kg, po administered for 12 weeks starting from week 8 and change in dose for every 5 days", "type": "functional, organism-based", "conditions": "time 4.0 weeks"}, "Mus musculus [3]": {"test_system": "Mus musculus", "assay": "Anti-NASH activity in western diet and CCl4-induced nonalcoholic steatohepatitis C57BL/6 mouse assessed as reduction in IL6 level at 20 mg/kg, po administered for 12 weeks starting from week 8 and change in dose for every 5 days by ELISA", "type": "functional, organism-based", "conditions": "time 4.0 weeks"}, "[4]": {"assay": "Metabolic stability in Beagle dog liver microsomes assessed as parent compound remaining incubated for 1 hr by LC-MS analysis", "type": "ADME, Canis lupus familiaris, Microsome", "conditions": "read-out: Stability"}, "[5]": {"assay": "Metabolic stability in human liver microsomes assessed as parent compound remaining incubated for 1 hr by LC-MS analysis", "type": "ADME, Microsome", "conditions": "read-out: Stability"}, "[6]": {"target": "T2, Peroxisome proliferator-activated receptor gamma (Homo sapiens, UniProt P37231)", "T2 sequence (P37231 whole entry)": "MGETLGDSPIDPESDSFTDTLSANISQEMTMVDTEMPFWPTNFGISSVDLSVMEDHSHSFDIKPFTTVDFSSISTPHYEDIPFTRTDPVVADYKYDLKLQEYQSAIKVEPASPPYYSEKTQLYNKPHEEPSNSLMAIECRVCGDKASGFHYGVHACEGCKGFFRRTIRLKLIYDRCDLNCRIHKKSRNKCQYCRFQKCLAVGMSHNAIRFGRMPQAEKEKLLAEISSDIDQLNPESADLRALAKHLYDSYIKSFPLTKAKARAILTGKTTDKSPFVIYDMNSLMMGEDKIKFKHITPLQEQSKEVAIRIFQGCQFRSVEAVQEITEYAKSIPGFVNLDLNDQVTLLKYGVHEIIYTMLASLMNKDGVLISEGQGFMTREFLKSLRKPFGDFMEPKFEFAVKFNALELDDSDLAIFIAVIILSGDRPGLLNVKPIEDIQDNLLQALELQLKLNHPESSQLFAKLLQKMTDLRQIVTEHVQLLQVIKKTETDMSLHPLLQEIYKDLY", "assay": "Agonist activity at PPARgamma (unknown origin) transfected in HEK293 cells incubated for 18 hrs by renilla/firefly based dual-glo luciferase assay", "type": "cell-based"}, "[7]": {"target": "T1, Bile acid receptor (Mus musculus)", "assay": "Activation of FXR in C57BL/6 mouse ileum assessed as upregulation of OST-beta gene expression at 20 mg/kg, po administered for 5 days and measured after 1 hr post final dose by RT-PCR analysis", "type": "organism-based", "conditions": "filed as activator, time 5.0 day"}, "[8]": {"target": "Mineralocorticoid receptor (Homo sapiens, UniProt P08235)", "sequence (P08235 whole entry, the tested form may be a part)": "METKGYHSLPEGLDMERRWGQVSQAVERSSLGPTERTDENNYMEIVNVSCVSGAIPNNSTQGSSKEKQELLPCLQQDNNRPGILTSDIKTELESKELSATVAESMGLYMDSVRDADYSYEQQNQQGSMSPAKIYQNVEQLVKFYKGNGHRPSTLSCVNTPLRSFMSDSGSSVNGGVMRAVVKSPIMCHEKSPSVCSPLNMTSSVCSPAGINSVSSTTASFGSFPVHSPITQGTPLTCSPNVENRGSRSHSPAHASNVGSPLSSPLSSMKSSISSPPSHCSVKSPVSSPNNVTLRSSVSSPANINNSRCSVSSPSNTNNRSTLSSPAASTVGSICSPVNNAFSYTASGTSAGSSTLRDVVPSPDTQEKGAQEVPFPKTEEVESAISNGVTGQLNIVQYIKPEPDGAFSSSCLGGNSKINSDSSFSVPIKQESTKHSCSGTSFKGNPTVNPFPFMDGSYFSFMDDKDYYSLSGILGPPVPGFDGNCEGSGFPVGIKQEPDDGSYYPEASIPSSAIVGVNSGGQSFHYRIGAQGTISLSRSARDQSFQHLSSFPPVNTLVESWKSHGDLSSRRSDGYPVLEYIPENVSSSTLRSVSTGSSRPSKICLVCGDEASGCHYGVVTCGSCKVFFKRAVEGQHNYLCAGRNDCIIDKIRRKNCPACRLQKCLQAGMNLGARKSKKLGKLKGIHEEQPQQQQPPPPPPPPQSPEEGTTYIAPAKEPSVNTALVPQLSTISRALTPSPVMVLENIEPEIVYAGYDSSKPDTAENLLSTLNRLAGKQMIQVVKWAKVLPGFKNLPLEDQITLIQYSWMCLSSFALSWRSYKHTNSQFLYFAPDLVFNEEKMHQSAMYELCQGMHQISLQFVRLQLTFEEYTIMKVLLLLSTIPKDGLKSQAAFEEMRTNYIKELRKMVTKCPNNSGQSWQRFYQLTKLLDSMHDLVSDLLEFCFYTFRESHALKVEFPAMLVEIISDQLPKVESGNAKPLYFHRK", "assay": "Activation of Gal-DBD and NHRLBD fused MR (unknown origin) transfected in African green monkey CV-1 cells by luciferase reporter assay", "type": "cell-based"}, "[9]": {"assay": "Subacute toxicity in ICR mouse assessed as changes in serum TBA level at 500 mg/kg/day, po administered for 14 days", "type": "organism-based", "conditions": "in vivo, 336 h, time 14 day"}, "Glucocorticoid receptor": {"target": "Glucocorticoid receptor (Homo sapiens, UniProt P04150)", "sequence (P04150 whole entry, the tested form may be a part)": "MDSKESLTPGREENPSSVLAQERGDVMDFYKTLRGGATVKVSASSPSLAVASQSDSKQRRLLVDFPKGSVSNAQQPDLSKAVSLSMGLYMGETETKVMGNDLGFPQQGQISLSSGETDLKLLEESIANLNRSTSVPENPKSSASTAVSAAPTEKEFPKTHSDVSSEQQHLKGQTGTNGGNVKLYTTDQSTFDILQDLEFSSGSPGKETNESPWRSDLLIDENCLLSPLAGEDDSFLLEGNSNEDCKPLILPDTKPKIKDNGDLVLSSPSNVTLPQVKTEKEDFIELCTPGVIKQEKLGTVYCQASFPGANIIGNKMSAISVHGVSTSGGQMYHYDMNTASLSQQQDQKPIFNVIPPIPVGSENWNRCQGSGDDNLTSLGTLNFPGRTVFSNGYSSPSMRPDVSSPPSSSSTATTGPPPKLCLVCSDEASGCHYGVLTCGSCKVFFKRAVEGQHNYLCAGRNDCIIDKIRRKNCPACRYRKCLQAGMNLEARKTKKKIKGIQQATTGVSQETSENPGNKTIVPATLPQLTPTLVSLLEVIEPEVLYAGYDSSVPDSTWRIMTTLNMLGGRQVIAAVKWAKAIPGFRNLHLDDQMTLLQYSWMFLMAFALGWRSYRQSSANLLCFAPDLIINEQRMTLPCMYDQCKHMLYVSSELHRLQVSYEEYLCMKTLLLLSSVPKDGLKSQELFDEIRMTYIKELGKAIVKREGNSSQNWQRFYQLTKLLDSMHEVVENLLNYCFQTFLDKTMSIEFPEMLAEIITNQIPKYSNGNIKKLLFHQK", "assay": "Activation of Gal-DBD and NHRLBD fused GR (unknown origin) transfected in African green monkey CV-1 cells by luciferase reporter assay", "type": "cell-based"}, "[10]": {"assay": "Inhibition of PPARbeta/delta (unknown origin) transfected in HepG2 cells incubated for 18 hrs in presence of GW0742 by dual luciferase reporter assay", "conditions": "Homo sapiens, HepG2, 18 h"}, "[11]": {"assay": "Subacute toxicity in ICR mouse assessed as changes in organ to body weight ratio at 500 mg/kg/day, po administered for 14 days", "type": "organism-based", "conditions": "in vivo, 336 h, time 14 day"}, "[12]": {"target": "T3, Peroxisome proliferator-activated receptor alpha (Homo sapiens, UniProt Q07869)", "T3 sequence (Q07869 whole entry)": "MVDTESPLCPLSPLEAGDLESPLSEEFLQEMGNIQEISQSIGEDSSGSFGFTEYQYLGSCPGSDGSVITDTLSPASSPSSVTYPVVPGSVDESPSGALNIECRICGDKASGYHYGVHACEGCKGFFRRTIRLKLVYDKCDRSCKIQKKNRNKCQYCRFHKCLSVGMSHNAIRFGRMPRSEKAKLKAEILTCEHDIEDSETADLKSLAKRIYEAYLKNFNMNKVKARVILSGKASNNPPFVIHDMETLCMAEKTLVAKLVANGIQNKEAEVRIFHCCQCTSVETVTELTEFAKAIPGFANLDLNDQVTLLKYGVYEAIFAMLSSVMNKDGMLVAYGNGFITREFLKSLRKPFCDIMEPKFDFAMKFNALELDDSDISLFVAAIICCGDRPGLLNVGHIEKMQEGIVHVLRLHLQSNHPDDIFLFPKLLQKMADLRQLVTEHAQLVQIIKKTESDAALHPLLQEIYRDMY", "assay": "Inhibition of pBIND-PPARalpha (unknown origin) transfected in HepG2 cells incubated for 18 hrs in presence of […] by dual luciferase reporter assay", "type": "cell-based"}, "[13]": {"target": "Fatty acid-binding protein, heart (Homo sapiens, UniProt P05413)", "sequence (P05413 whole entry)": "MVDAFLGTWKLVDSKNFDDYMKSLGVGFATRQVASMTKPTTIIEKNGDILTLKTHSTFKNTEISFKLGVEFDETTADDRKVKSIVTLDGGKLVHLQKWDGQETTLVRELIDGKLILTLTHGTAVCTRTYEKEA", "assay": "Displacement of 8-anilino-1-naphthalene-sulfonic acid from FABP3 (unknown origin) incubated for 3 mins by fluorescence based assay"}, "[14]": {"assay": "Subacute toxicity in ICR mouse assessed as changes in body weight at 500 mg/kg/day, po administered for 14 days", "type": "organism-based", "conditions": "in vivo, 336 h, time 14 day"}, "[15]": {"target": "Fatty acid-binding protein, adipocyte (Homo sapiens, UniProt P15090)", "sequence (P15090 whole entry)": "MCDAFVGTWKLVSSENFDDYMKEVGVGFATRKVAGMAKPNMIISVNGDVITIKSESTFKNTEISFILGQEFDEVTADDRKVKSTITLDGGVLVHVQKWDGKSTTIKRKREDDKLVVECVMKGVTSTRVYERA", "assay": "Displacement of 8-anilino-1-naphthalene-sulfonic acid from FABP4 (unknown origin) incubated for 3 mins by fluorescence based assay"}, "[16]": {"assay": "Subacute toxicity in ICR mouse assessed as changes in animal growth at 500 mg/kg/day, po administered for 14 days", "type": "organism-based", "conditions": "in vivo, 336 h, time 14 day"}, "[17]": {"assay": "Activation of Gal-DBD and NHRLBD fused RXRalpha (unknown origin) transfected in African green monkey CV-1 cells by luciferase reporter assay", "type": "cell-based", "conditions": "Homo sapiens"}, "Mus musculus [18]": {"test_system": "Mus musculus", "assay": "In vivo inhibition of FABP1 in western diet and CCl4-induced nonalcoholic steatohepatitis C57BL/6 mouse assessed as reduction in NEFA uptake in fecal at 20 mg/kg, po administered for 12 weeks starting from week 8 and change in dose for every 5 days", "type": "functional, organism-based", "conditions": "time 4.0 weeks"}}, "note": "Active and inactive are the calls of the source. The rule behind the calls is not given here."}
{"smiles": "O=C(O)C1(c2cccc(-c3ccc(OCc4c(-c5c(Cl)cccc5Cl)noc4C4CC4)cc3)c2)CC1", "values": [{"measurement": "EC50", "setting": "[1]", "result": "> 10", "unit": "µM"}, {"measurement": "Activity", "setting": "[2]", "result": "Active"}, {"measurement": "Activity", "setting": "Mus musculus [3]", "result": "Active"}, {"measurement": "remaining at 1 h", "setting": "[4]", "result": 57.4, "unit": "%"}, {"measurement": "remaining at 1 h", "setting": "[5]", "result": 71.6, "unit": "%"}, {"measurement": "EC50", "setting": "[6]", "result": "> 10", "unit": "µM"}, {"measurement": "Activity", "setting": "[7]", "result": "Active"}, {"measurement": "EC50", "setting": "[8]", "result": "> 10", "unit": "µM"}, {"measurement": "Activity", "setting": "[9]", "result": "Non-Toxic"}, {"measurement": "EC50", "setting": "Glucocorticoid receptor", "result": "> 10", "unit": "µM"}, {"measurement": "IC50", "setting": "[10]", "result": "> 10", "unit": "µM"}, {"measurement": "Activity", "setting": "[11]", "result": "Non-Toxic"}, {"measurement": "IC50", "setting": "[12]", "result": "> 10", "unit": "µM"}, {"measurement": "IC50", "setting": "[13]", "result": "> 30", "unit": "µM"}, {"measurement": "Activity", "setting": "[14]", "result": "Non-Toxic"}, {"measurement": "IC50", "setting": "[15]", "result": 6.3, "unit": "µM"}, {"measurement": "Activity", "setting": "[16]", "result": "Non-Toxic"}, {"measurement": "EC50", "setting": "[17]", "result": "> 10", "unit": "µM"}, {"measurement": "Activity", "setting": "Mus musculus [18]", "result": "Active"}]}
